Experimental data taken from ChEMBL document CHEMBL1145347, “A gatekeeper residue for inhibitor sensitization of protein tyrosine phosphatases” (Bioorg Med Chem Lett, 2006).
pKi: −log10 of the molar value.

What was measured:
[1] = biological target: Tyrosine-protein phosphatase non-receptor type 1 (Homo sapiens, UniProt P18031, I219A); experiment: Inhibition of PTP1B I219A mutant
[2] = biological target: T1, Tyrosine-protein phosphatase non-receptor type 1 (Homo sapiens) (UniProt P18031); experiment: Selectivity for PTP1B V49A over wild type PTP1B
T1 sequence (whole entry): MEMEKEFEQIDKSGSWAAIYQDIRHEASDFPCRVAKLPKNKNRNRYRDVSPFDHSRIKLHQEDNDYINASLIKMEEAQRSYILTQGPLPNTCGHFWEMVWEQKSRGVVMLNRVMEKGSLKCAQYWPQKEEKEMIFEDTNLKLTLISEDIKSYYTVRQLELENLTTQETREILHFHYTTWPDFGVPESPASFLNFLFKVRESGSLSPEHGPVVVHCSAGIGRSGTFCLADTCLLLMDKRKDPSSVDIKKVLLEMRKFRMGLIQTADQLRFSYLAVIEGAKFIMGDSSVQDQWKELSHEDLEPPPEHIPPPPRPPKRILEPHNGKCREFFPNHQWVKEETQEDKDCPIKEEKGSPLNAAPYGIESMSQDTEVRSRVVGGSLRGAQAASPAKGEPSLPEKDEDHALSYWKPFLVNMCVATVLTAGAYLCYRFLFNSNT

[3] = biological target: T2, Tyrosine-protein phosphatase non-receptor type 1 (Homo sapiens, UniProt P18031); experiment: Inhibition of wild type PTP1B
T2 sequence (P18031 whole entry): T1 sequence (whole entry)

[4] = biological target: Tyrosine-protein phosphatase non-receptor type 1 (Homo sapiens, UniProt P18031, V49A); experiment: Inhibition of PTP1B V49A mutant
Sequence of Tyrosine-protein phosphatase non-receptor type 1 (Homo sapiens, UniProt P18031, V49A) (P18031 whole entry V49A): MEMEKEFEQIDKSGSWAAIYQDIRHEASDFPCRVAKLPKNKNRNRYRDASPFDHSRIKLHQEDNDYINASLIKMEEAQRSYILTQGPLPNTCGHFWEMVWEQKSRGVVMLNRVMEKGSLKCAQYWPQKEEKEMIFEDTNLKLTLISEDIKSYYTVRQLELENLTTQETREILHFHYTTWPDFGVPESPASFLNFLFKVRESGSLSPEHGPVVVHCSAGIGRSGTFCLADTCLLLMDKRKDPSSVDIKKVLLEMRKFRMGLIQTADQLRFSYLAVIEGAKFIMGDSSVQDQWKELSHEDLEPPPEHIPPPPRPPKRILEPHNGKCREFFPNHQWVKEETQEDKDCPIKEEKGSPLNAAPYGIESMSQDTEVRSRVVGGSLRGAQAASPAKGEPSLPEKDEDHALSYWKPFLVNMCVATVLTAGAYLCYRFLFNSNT

[5] = system: Tyrosine-protein phosphatase non-receptor type 1 (Homo sapiens), P18031 [UNDEFINED MUTATION]; experiment: Selectivity for PTP1B I219A over wild type PTP1B
[6] = biological target: Tyrosine-protein phosphatase non-receptor type 2 (Homo sapiens, UniProt P17706, I220A); experiment: Inhibition of TCPTP I220A mutant
Sequence of Tyrosine-protein phosphatase non-receptor type 2 (Homo sapiens, UniProt P17706, I220A) (P17706 whole entry I220A): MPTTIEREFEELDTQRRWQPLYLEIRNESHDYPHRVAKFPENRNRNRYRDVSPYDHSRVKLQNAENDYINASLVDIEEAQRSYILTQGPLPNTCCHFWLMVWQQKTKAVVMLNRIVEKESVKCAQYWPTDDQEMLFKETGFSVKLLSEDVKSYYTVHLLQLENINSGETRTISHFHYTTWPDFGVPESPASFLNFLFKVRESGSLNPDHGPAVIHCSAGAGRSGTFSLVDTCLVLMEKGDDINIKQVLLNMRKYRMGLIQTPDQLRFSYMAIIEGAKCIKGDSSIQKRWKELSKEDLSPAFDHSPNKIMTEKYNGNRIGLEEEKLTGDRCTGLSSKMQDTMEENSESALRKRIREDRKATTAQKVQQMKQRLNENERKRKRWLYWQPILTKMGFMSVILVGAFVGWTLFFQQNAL

[7] = biological target: T3, Tyrosine-protein phosphatase non-receptor type 2 (Homo sapiens, UniProt P17706); experiment: Inhibition of TCPTP
T3 sequence (P17706 whole entry): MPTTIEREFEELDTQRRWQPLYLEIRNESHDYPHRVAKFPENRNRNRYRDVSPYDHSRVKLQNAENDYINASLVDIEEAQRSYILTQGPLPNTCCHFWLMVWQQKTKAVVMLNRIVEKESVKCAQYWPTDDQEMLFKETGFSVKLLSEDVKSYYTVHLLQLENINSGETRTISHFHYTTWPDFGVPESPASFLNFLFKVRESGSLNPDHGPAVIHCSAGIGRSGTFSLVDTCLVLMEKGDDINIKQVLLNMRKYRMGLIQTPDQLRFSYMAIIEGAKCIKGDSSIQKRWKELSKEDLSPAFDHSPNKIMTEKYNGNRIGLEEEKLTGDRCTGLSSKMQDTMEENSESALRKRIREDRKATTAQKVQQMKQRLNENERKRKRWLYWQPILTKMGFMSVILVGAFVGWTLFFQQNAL

Sequence of Tyrosine-protein phosphatase non-receptor type 1 (Homo sapiens, UniProt P18031, I219A) (P18031 whole entry I219A): as the sequence (P18031 whole entry V49A) above, with A49V, I219A counted along it

SMILES | pKi [1] | Selectivity ratio [2] | pKi [3] | pKi [4] | Selectivity ratio [5] | pKi [6] | pKi [7]
CC1(C)Cc2c(sc(NC(=O)C(=O)O)c2C(=O)O)C(C)(C)C1 | 5.00 | > 10 | < 3.52 | 4.57 | > 30 | – | –
O=C(O)C(=O)Nc1sc2c(c1C(=O)O)CCNC2 | 6.64 | – | 5.22 | – | – | 6.15 | 5.00
